Source: US12521393B2, “Cytotoxicity targeting chimeras for CCR2-expressing cells” (GLAXOSMITHKLINE INTELLECTUAL PROPERTY DEVELOPMENT LIMITED, priority 2021, dated 2026)

Columns and labels:
[1] = target: T1, CHOK1 cells engineered to overexpress human CCR2 (Homo sapiens, UniProt P41597); test: Antibody dependent cellular cytotoxicity (ADCC) reporter assay (Example 199); format: cell-based; conditions: with anti-cotinine antibody (SEQ ID NO: 11/12), Jurkat FcγRIIIa NFAT-luciferase reporter cells, 12-18 hours, EC50 in molar, average or individual runs; for EC50: read-out: ADCC Reporter Assay pEC50 (converted)
T1 construct: expressed in transfected cells; host or cells: CHOK1
Procedure: An antibody dependent cellular cytoxocity reporter assay was conducted using the following four assay components: (i) ARM compound of Formula (I) targeting CCR2 (concentrations ranging from […] to 10 μM) (ii) anti-cotinine antibody having a heavy chain sequence of SEQ ID NO: 11 and a light chain sequence of SEQ ID NO: 12 (rabbit variable region with human IgG1 Fc domain containing a DE mutation (S239D/1332E)) (concentrations ranging from 0.01 μg/mL to 200 μg/mL); (iii) target cells: CHOK1 cells engineered to overexpress either human CCR2 (typically 1000-20,000 cells per well) and (iv) reporter cells: Jurkat cells engineered to express FcγRIIIa with the reporter gene luciferase under the control of the NFAT promoter (typically 3000-75,000 cells per well). Reagents were combined in a final volume of 20 μL in a 384-well tissue culture treated plate. All four assay components were incubated together for about 12-18 hours. Thereafter, BioGlo Detection reagent (Promega) was added to the wells to lyse the cells and provide a substrate for the luciferase reporter protein. Luminescence signal was measured on a microplate reader and signal: background was calculated by dividing the signal of a test well by the signal obtained when no heterobivalent compound of Formula (I) was added. EC50 calculations were done using Graphpad Prism Software, specifically a nonlinear regression curve fit (Y=Bottom+(Top−Bottom)/(1+10A((LogEC50−X)*HillSlope))).
ARMs compounds of Formula (I) of the invention were tested for ADCC activity in the above assay in or more experimental runs and the results are shown in Table 3 below. Potency of the compounds of Formula (I) of the invention is reported as a pEC50 value. The pEC50 value is the negative log of the EC50 value, wherein the EC50 value is the half maximal effective concentration measured in molar (M). For compounds tested in more than one experimental run, the pEC50 value is reported as an average.

[2] = test system: endogenous target monocytes in human PBMC; test: PBMC ex vivo monocyte depletion flow cytometry assay (Example 200); format: cell-based; conditions: with anti-cotinine antibody (SEQ ID NO: 11/12), 18-24 hours, EC50 in molar, read-out: Ex Vivo Depletion Assay pEC50 (converted)
Summary of the method: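 Monocyte depletion is reported as pEC50, averaged or given individually across runs, and read by flow cytometry staining CD45, CD14 and CD4 with a viability dye. Compounds, diluted four-fold over 11 points from 1 mM DMSO stocks, were combined with 30 μg/mL Fc-enhanced anti-cotinine antibody and human PBMC, then incubated 18-24 h at 37° C.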

[3] = target: anti-cotinine antibody (SEQ ID NO: 11/12, rabbit variable region with human IgG1 Fc DE mutation); test: SPR binding of anti-cotinine antibody to ARM compounds, Biacore T200, 37° C. (Example 202); conditions: SPR Biacore T200, 37° C., pH 7.4, antibody SEQ ID NO: 11/12 captured on protein A; Kd in molar
Summary of the method: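 Run at 37 °C in 10 mM HEPES pH 7.4, 150 mM NaCl, 0.005% P20, 1% DMSO, with compounds titrated from 200 nM (five 3-fold steps) over protein A–captured antibody. A 1:1 kinetic model on double-referenced data gave rate constants, Kd as koff/kon and residence time 1/koff; results as pKd, run-averaged.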

[4] = test system: CCR2 expressing cells (CD11b+Ly6c+Hi) in peripheral blood; test: In vivo depletion assay, flow cytometry of peripheral blood (Example 201); design: species or system human CCR2 knock-in mice (C57 background); conditions: hCCR2 knock-in mice, IV 0.1 mpk compound + 10 mpk anti-cotinine antibody (SEQ ID NO: 13/14), peripheral blood at 48 hr
Summary of the method: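 Flow cytometry of blood collected at study termination quantified percent depletion of CD11b+Ly6c+Hi cells and CCR2 expression, using surface markers CD45, CD3, CD11b, Ly6C, human CCR2 after Fc block, with 7AAD viability stain. Compound given in saline:DMSO:PBS formulation, optionally combined with anti-cotinine antibody, incubated 30 min before administration.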

Row | SMILES | EC50 [1] | EC50 [2] | ADCC Reporter Assay pEC50 [1] | pKd of Antibody for ARM Compound of Formula (I) [3] | % Depletion of CCR2 expressing cells [4]
1 | CC(C)N(C)[C@@H]1CC[C@H](N2CC[C@H](Nc3ncnc4ccc(C(F)(F)F)cc34)C2=O)[C@H](NC(=O)C2CCC(N3CCC(S(=O)(=O)NCCCCCCNC(=O)[C@H]4CC(=O)N(C)[C@@H]4c4cccnc4)CC3)CC2)C1 (single isomer, unassigned) [Example 149] | 0.251 nM | 0.251 nM | – | – | –
2 | CC(C)N(C)[C@@H]1CC[C@H](N2CC[C@H](Nc3ncnc4ccc(C(F)(F)F)cc34)C2=O)[C@H](NC(=O)CCOCCOCCOCCOCCNC(=O)[C@H]2CC(=O)N(C)[C@@H]2c2cccnc2)C1 [Example 39, (2S,3S)-N-(15-(((1R,2S,5R)-5-(Isopropyl(methyl)amino)-2-((S)-2-oxo-3-((6-(trifluoromethyl)quinazolin-4-yl)amino)pyrrolidin-1-yl)cyclohexyl)amino)-15-oxo-3,6,9,12-tetraoxapentadecyl)-1-methyl-5-oxo-2-(pyridin-3-yl)pyrrolidine-3-carboxamide] | 15.8 nM | 2510 nM | – | – | –
3 | CC(C)N(C)[C@@H]1CC[C@H](N2CC[C@H](Nc3ncnc4ccc(C(F)(F)F)cc34)C2=O)[C@H](N[C@H]2CC[C@@H](C(=O)NCCOCCOCCOCCOCCNC(=O)[C@H]3CC(=O)N(C)[C@@H]3c3cccnc3)CC2)C1 [Example 67] | 5.01 nM | 3.98 nM | – | – | –
4 | CC(C)N(C)[C@@H]1CC[C@H](N2CC[C@H](Nc3ncnc4ccc(C(F)(F)F)cc34)C2=O)[C@H](NC(=O)CCOCCOCCOCCOCCOCCOCCOCCOCCOCCOCCOCCOCCOCCOCCOCCOCCOCCOCCOCCOCCOCCOCCOCCNC(=O)C2CC(=O)N(C)C2c2cccnc2)C1 (stereo in doubt) [Example 43, (2R,3R)-N-(72-(((1R,2S,5R)-5-(isopropyl(methyl)amino)-2-((S)-2-oxo-3-((6-(trifluoromethyl)quinazolin-4-yl)amino)pyrrolidin-1-yl)cyclohexyl)amino)-72-oxo-3,6,9,12,15,18,21,24,27,30,33,36,39,42,45,48,51,54,57,60,63,66,69-tricosaoxadoheptacontyl)-1-methyl-5-oxo-2-(pyridin-3-yl)pyrrolidine-3-carboxamide] | – | – | 8.8 | – | –
5 | CC(C)N(C)[C@@H]1CC[C@H](N2CC[C@H](Nc3ncnc4ccc(C(F)(F)F)cc34)C2=O)[C@H](NC(=O)CCCNc2c(NCCOCCOCCOCCOCCNC(=O)[C@H]3CC(=O)N(C)[C@@H]3c3cccnc3)c(=O)c2=O)C1 [Example 164, (2S,3S)-N-(14-((2-((4-(((1R,2S,5R)-5-(Isopropyl(methyl)amino)-2-((S)-2-oxo-3-((6-(trifluoromethyl)quinazolin-4-yl)amino)pyrrolidin-1-yl)cyclohexyl)amino)-4-oxobutyl)amino)-3,4-dioxocyclobut-1-en-1-yl)amino)-3,6,9,12-tetraoxatetradecyl)-1-methyl-5-oxo-2-(pyridin-3-yl)pyrrolidine-3-carboxamide] | – | 1 nM | – | 9.3225 | 86%
6 | CC(C)N(C)[C@@H]1CC[C@H](N2CC[C@H](Nc3ncnc4ccc(C(F)(F)F)cc34)C2=O)[C@H](NC(=O)C2CCN(C3CCN(C(=O)CCCCCCCCCNC(=O)[C@@H]4CC(=O)N(C)[C@H]4c4cccnc4)CC3)CC2)C1 [Example 157, N-((1R,2S,5R)-5-(Isopropyl(methyl)amino)-2-((S)-2-oxo-3-((6-(trifluoromethyl)quinazolin-4-yl)amino)pyrrolidin-1-yl)cyclohexyl)-1′-(10-((2R,3R)-1-methyl-5-oxo-2-(pyridin-3-yl)pyrrolidine-3-carboxamido)decanoyl)-[1,4′-bipiperidine]-4-carboxamide] | – | 0.631 nM | – | 10.135 | 79%
7 | CC(C)N(C)[C@@H]1CC[C@H](N2CC[C@H](Nc3ncnc4ccc(C(F)(F)F)cc34)C2=O)[C@H](NC(=O)CCOCCNC(=O)CCOCCNC(=O)CCOCCNC(=O)[C@H]2CC(=O)N(C)[C@@H]2c2cccnc2)C1 [Example 46, (2S,3S)-N-(20-(((1R,2S,5R)-5-(Isopropyl(methyl)amino)-2-((S)-2-oxo-3-((6-(trifluoromethyl)quinazolin-4-yl)amino)pyrrolidin-1-yl)cyclohexyl)amino)-6,13,20-trioxo-3,10,17-trioxa-7,14-diazaicosyl)-1-methyl-5-oxo-2-(pyridin-3-yl)pyrrolidine-3-carboxamide] | – | 0.501 nM | – | 9.074 | 96%
8 | CC(C)N(C)[C@@H]1CC[C@H](N2CC[C@H](Nc3ncnc4ccc(C(F)(F)F)cc34)C2=O)[C@H](NC(=O)CCCC(=O)N[C@H]2CC[C@@H](CNC(=O)CCOCCNC(=O)[C@H]3CC(=O)N(C)[C@@H]3c3cccnc3)CC2)C1 [Example 179, N^1-((1R,2S,5R)-5-(isopropyl(methyl)amino)-2-((S)-2-oxo-3-((6-(trifluoromethyl)quinazolin-4-yl)amino)pyrrolidin-1-yl)cyclohexyl)-N^5-((1R,4S)-4-((3-(2-((2S,3S)-1-methyl-5-oxo-2-(pyridin-3-yl)pyrrolidine-3-carboxamido)ethoxy)propanamido)methyl)cyclohexyl)glutaramide] | – | 0.631 nM | – | 9.24 | 89.5%
9 | CC(C)N(C)[C@@H]1CC[C@H](N2CC[C@H](Nc3ncnc4ccc(C(F)(F)F)cc34)C2=O)[C@H](Nc2c(NCCOCCOCCOCCOCCOCCNC(=O)[C@H]3CC(=O)N(C)[C@@H]3c3cccnc3)c(=O)c2=O)C1 [Example 85, (2S,3S)-N-(17-((2-(((1R,2S,5R)-5-(Isopropyl(methyl)amino)-2-((S)-2-oxo-3-((6-(trifluoromethyl)quinazolin-4-yl)amino)pyrrolidin-1-yl)cyclohexyl)amino)-3,4-dioxocyclobut-1-en-1-yl)amino)-3,6,9,12,15-pentaoxaheptadecyl)-1-methyl-5-oxo-2-(pyridin-3-yl)pyrrolidine-3-carboxamide] | – | 2 nM | – | 9.6885 | 57%
10 | CC(C)N(C)[C@@H]1CC[C@H](N2CC[C@H](Nc3ncnc4ccc(C(F)(F)F)cc34)C2=O)[C@H](NC(=O)CCOCCOCCOCCNc2c(NCCCNC(=O)[C@H]3CC(=O)N(C)[C@@H]3c3cccnc3)c(=O)c2=O)C1 [Example 169, (2S,3S)-N-(3-((2-((2-(2-(2-(3-(((1R,2S,5R)-5-(Isopropyl(methyl)amino)-2-((S)-2-oxo-3-((6-(trifluoromethyl)quinazolin-4-yl)amino)pyrrolidin-1-yl)cyclohexyl)amino)-3-oxopropoxy)ethoxy)ethoxy)ethyl)amino)-3,4-dioxocyclobut-1-en-1-yl)amino)propyl)-1-methyl-5-oxo-2-(pyridin-3-yl)pyrrolidine-3-carboxamide] | – | 0.251 nM | – | 9.0085 | 87%
